Here are results for eight substances from patent US10077290B2, “Stabilized antiviral fusion helices” (priority 2011, dated 2018).

“Also recorded” adds a separate entry of the source. Read-outs that look alike come from different tables or passages of the source. Bridges are numbered along the chain shown (N, C = ends). Where no end group is shown, it is not given here. [ ]: non-standard residue; d: D form. R8 = C=CCCCCCC[C@@](C)(N)C(=O)O; S5 = C=CCCC[C@](C)(N)C(=O)O

The subject of one experiment is RSV 5-helix bundle. Put plainly: Competition fluorescence polarization assay (FPA) against FITC-RSV HR2 (488-522). The experiment is classed as binding, Respiratory Syncytial Virus (RSV). How it is done: To assess binding activity toward the RSV fusogenic bundle, competition FPA was performed using recombinant five-helix bundle protein, fluorescent HR2 peptide (488-522), and serial dilutions of SAHF peptides shown in Table 2. More specifically, a 5-helix bundle protein was designed containing five of the six helices that comprise the core of the RSV-F trimer of hairpins, connected by short peptide linkers in accordance with the design of the gp41 5-helix bundle (Root et al., Science, 291:884-888, 2001). Because the 5-helix bundle lacks the third HR2 helix but is otherwise soluble, stable, and helical, incorporation of the sixth HR2 peptide in the form of FITC-RSV (488-522) yielded a stable complex, which can be competed with acetylated SAH-RSV peptides to gauge relative binding affinity.
FPA assays were used to measure and compare the relative binding activities of distinct SAHF constructs for the RSV fusion bundle. First, FITC-RSV HR2 peptide (488-522) is mixed with a serial dilution of recombinant 5-helix bundle protein to generate a binding isotherm. A fixed concentration of FITC-peptide and protein at ˜EC75 was then incubated with a serial dilution of acetylated SAHF peptide to generate competition curves for comparative analysis. Fluorescence polarization (mP units) was measured on a SpectraMax fluorimeter and IC50 values calculated by nonlinear regression analysis of competition curves using Prism software (Graphpad).
For orientation: Polarisation of emitted light reports the rotation of a fluorescent probe.

The test system of experiment [1] is rgRSV. Put plainly: rgRSV in vitro infectivity assay in Vero cells. The class given is cell-based, Respiratory Syncytial Virus (RSV). The following applies: for inhibition of RSV infection (anti-RSV activity): rgRSV 0.1 MOI, 24 hour post-infection; for RSV infection, peptide administered before viral exposure (prophylactically): SAHF for 1 hour followed by rgRSV 0.1 MOI; for RSV infection, peptide administered after viral exposure: rgRSV 0.1 MOI for 1 hour followed by SAHF. How it is done: To test the capacity of SAHF peptides to block RSV infection of culture cells, an in vitro infectivity assay was performed in the presence and absence of SAHF peptides. Briefly, Vero cells plated in 48-well format (60,000 cells/well) were exposed to rgRSV only (0.1 MOI) and SAHF peptides, followed by imaging 24 hour post-infection to quantitate infectivity by confocal microscopy and FACS analysis Annexin V staining was also performed on harvested Vero cells to distinguish live from dead cells when calculating percent GFP positive cells.
(§1) Vero cells plated in 48-well format (60,000 cells/well) were exposed to (a) rgRSV only (0.1 MOI); (b) rgRSV for 1 hour followed by treatment with SAHF; and (c) SAHF for 1 hour followed by rgRSV infection, and then imaged 24 hour post-infection to quantitate infectivity by confocal microscopy and FACS analysis.

Experiment [2] has as its system RgRSV. Put plainly: Intranasal RgRSV infection of BALB/c mice after intranasal peptide. The experiment is classed as in vivo. As to conditions: RgRSV-infected, 125 μM intranasally. How it is done:
One hour post treatment, three groups of mice were inoculated with a single dose of RgRSV at 1×10^6 pfu/mouse, with the fourth group receiving a mock inoculation. Mice were sacrificed at 24 hours post infection and the noses harvested, sectioned, stained with DAPI and imaged with an Olympus fluorescent microscope (FIG. 16A; original magnification 20×). Image J analysis was performed on the acquired images (FIG. 16B) and average GFP positive (green) and DAPI positive (blue) cells were calculated from eight images (4 sections) per mouse (bars represent percent GFP positive of total DAPI-positive cells present in the images and error bars represent mean+/−SEM. *, p<0.001). FIG. 16C depicts the results of hematoxylin and eosin staining of the nose sections (original magnification 20×, insets 100×) In FIG. 16C black arrows highlight thickened mucosa.

The subject of another experiment is RSV-A2. In words: RSV-A2 lung infection of BALB/c mice after prophylactic intranasal peptide. The experiment is classed as in vivo. As to conditions: 125 μM intranasally, dosing and inoculation repeated at 16 hours, 4 days after second infection. On the procedure: One hour post treatment, three groups of mice were inoculated with a single dose of RSV-A2 at 1×10^6 pfu/mouse. Peptide dosing and viral inoculation was repeated 16 hours post-infection. The fourth group was treated with volume-equivalent vehicle and mock-infected. Two mice from each group were sacrificed 4 days after the second infection and left lung lobes harvested after 1% paraformaldehyde perfusion, followed by cryopreservation in OCT. Sections (5 μm) were treated with 1:1000 dilution of rabbit anti-RSV polyclonal antibody (Millipore) overnight followed by anti-rabbit antibody conjugated to Alexa Fluor 555 (1:400) (red) (Molecular Probes) for 1 h. Sections were washed and mounted with medium containing DAPI (blue) and viewed with an Olympus fluorescent microscope (FIG. 17A; original magnification 20×). Image J analysis was performed on the acquired images and the percentage RSV-positive cells (red) of total DAPI-positive cells (blue) determined from 8 images (4 sections) per mice (FIG. 17B; .error bars represent mean+/−SEM; *, p<0.0001). Four days after the second infection, bronchoalveolar lavage (BAL) was performed on one mouse from each group and BAL supernatant used to determine the viral titers by plaque assay on Hep-2 cells (FIG. 17C; error bars represent mean+/−SEM of plaques counted per in vivo specimen; *, p<0.05). Also at four days after the second infection, cranial and caudal lobes of the right lung from two mice per group were snap frozen on dry ice. A lung homogenate was generated from the cranial lobe and supernatant subjected to viral titer determination (log 10 pfu/ml) (FIG. 17D; error bars represent mean+/−SEM; *, p<0.05). Total RNA was isolated from the caudal lobe of the right lung and quatitative RT-PCR was performed for the RSV-N gene. The results of this analysis are presented in FIG. 17E in which the bar graphs represent the RSV-N gene expression normalized to the mock-infected tissue.

Experiment [3] has as its system rgRSV. In words: Virus-induced syncytia formation in Vero cells. The class given is cell-based, Respiratory Syncytial Virus (RSV). As to conditions: administered before or after viral exposure. How it is done: as §1
For experiment [4], the system named is rgRSV. In words: Intranasal peptide followed by transnasal rgRSV infection in mice. The class given is in vivo. As to conditions: 250 μM, 25 μL intranasally four hours before rgRSV, 20 hours post-infection. How it is done: To examine the capacity of SAH-RSV peptides to inhibit RSV infection in vivo, vehicle or SAH-RSV peptide (250 μM, 25 μL) was administered to anesthetized mice intranasally followed by transnasal infection with rgRSV (5×10^5 PFU, 36 μL) four hours later. Mice were sacrificed 20 hours post-infection, and the nasal epithelium cryosectioned, stained with DAPI, and imaged using a fluorescent microscope.

With “F8ASISQVXEKINQSLAFIRKSDELLHNVNAGKST (Ac-F[R8]ASISQV[S5]EKINQSLAFIRKSDELLHNVNAGKST; staple 2-9) [SAHF-G]”, the “5-helix bundle binding activity” value in the experiment on RSV 5-helix bundle was “superior 5-helix bundle binding”. For the same substance, the “inhibition of RSV infection (anti-RSV activity)” value (“inhibition of RSV infection” below) with rgRSV [1] is “superior”.

As to “FD8SISQVNXKINQSLAFIRK8DELLHNXNAGKST (FDXSISQVNXKINQSLAFIRKXDELLHNXNAGKST; two hydrocarbon staples; MOD_RES (3)..(3) Any amino acid; (3)..(10) Crosslink between residues; MOD_RES (10)..(10) Any amino acid; MOD_RES (22)..(22) Any amino acid; (22)..(29) Crosslink between residues; MOD_RES (29)..(29) Any amino acid) [SAHF-H, L, control]”, the “inflammation in nose sections (hematoxylin and eosin staining)” value in the experiment on RgRSV [2] was “Inflammation is noted”. In the experiment with RSV-A2, the “RSV-A2 lung infection, by each measure (RSV-positive cells, BAL and lung homogenate titers, RSV-N gene)” value is on record as “no effect”.

Consider “FD8SISQVNXKINQSLAFIRKSDELLHNVNAGKST (FDXSISQVNXKINQSLAFIRKSDELLHNVNAGKST; hydrocarbon staple; MOD_RES (3)..(3) Any amino acid; (3)..(10) Crosslink between residues; MOD_RES (10)..(10) Any amino acid) [SAHF-H]”, for which the “5-helix bundle binding activity” value with RSV 5-helix bundle is “superior 5-helix bundle binding”. In the experiment on rgRSV [1], the “RSV infection, peptide administered before viral exposure (prophylactically)” value was “inhibited RSV infection; also recorded: blocks RSV infection of Vero cells”; the “RSV infection, peptide administered after viral exposure” value is “inhibited RSV infection; also recorded: blocks RSV infection of Vero cells”; the “inhibition of RSV infection” value is given as “superior”. The virus-induced syncytia formation result with rgRSV [3] is “blocked syncytial formation; also recorded: inhibits virus-induced syncytia formation”.

Consider “FDA8SQVVNEXINQSLAFIRKSDELLHNVNAGKST [SAHF-I]”, for which the “5-helix bundle binding activity” value in the experiment on RSV 5-helix bundle is “superior 5-helix bundle binding”. For the same substance, the “inhibition of RSV infection” value in the experiment with rgRSV [1] was “superior”.

On to “FDASISQVNEKINQSLAFI8KSDELLXNVNAGKST (Ac-FDASISQVNEKINQSLAFI[R8]KSDELL[S5]NVNAGKST; staple 20-27) [SAHF-J]”, for which, in the experiment on RSV 5-helix bundle, the “5-helix bundle binding activity” value was “superior 5-helix bundle binding”. Further, the “inhibition of RSV infection” value with rgRSV [1] was “superior”.

On to “FDASISQVNEKINQSLAFIR8SDELLHXVNAGKST (Ac-FDASISQVNEKINQSLAFIR[R8]SDELLH[S5]VNAGKST; staple 21-28) [SAHF-K]”, for which the “5-helix bundle binding activity” value with RSV 5-helix bundle was “superior 5-helix bundle binding”. In the experiment with rgRSV [1], the “inhibition of RSV infection” value is listed as “superior”.

On to “FDASISQVNEKINQSLAFIRK8DELLHNXNAGKST [SAHF-L, negative control]”, for which the “5-helix bundle binding activity” value in the experiment on RSV 5-helix bundle is on record as “no binding activity; also recorded: did not bind”. Also, the “5-helix bundle binding activity” value in the experiment on RSV 5-helix bundle (listed as SAH-RSV(L)) is recorded as “poor binding activity; also recorded: incapable of binding the 5-helix bundle”. In the experiment with rgRSV [1], the “RSV infection, peptide administered before viral exposure (prophylactically)” value is recorded as “little to no effect”; the “RSV infection, peptide administered after viral exposure” value is “little to no effect”; the “inhibition of RSV infection” value is recorded as “nor suppressed RSV infection in vitro”. The “inhibition of RSV infection” value in the experiment with rgRSV [1] (listed as SAH-RSV(L)) is reported as “no activity”. In addition, the “RSV infection of nasal mucosa (GFP-positive cells)” value in the experiment with rgRSV [4] is “no in vivo activity”. The virus-induced syncytia formation entry with rgRSV [3] is listed as “little to no effect”.

As to “FDAXISQXNEKINQSLAFIRKSDELLHNVNAGKST (Ac-FDA[S5]ISQ[S5]NEKINQSLAFIRKSDELLHNVNAGKST; staple 4-8) [SAHF-C]”, in the experiment on RSV 5-helix bundle, the “5-helix bundle binding activity” value is “bound the 5-helix bundle”. Also, the “inhibition of RSV infection” value with rgRSV [1] is “suppressed RSV infection in vitro”. In addition, the “RSV infection of nasal mucosa (GFP-positive cells)” value in the experiment with rgRSV [4] is “markedly suppressed RSV infection; also recorded: blocks trans-nasal RSV infection in mice”.
